According to patent US12325694B2, “Co-crystalline form of efinaconazole and method for preparing the same” (Daebong Ls Co., Ltd., priority 2019, dated 2025):

Test: Stability test: HPLC purity after standing in solution at different temperatures
Type: physicochemical
Settings: Solution (10%)
Method: The stabilities of the co-crystals of efinaconazole to temperature and a solution were evaluated and compared by the following experimental method.

HPLC (%) (65 °C (oven), after 1 week): 99.55% | Related substances (%) (65 °C (oven), after 1 week): 0.45% | HPLC (%) (65 °C (oven), after 2 weeks): 99.46% | Related substances (%) (65 °C (oven), after 2 weeks): 0.54% | HPLC (%) (65 °C (oven), after 4 weeks): 98.47% | Related substances (%) (65 °C (oven), after 4 weeks): 1.53% | HPLC (%) (room temp., after 1 week): 99.73% | Related substances (%) (room temp., after 1 week): 0.27% | HPLC (%) (room temp., after 2 weeks): 99.61% | Related substances (%) (room temp., after 2 weeks): 0.39% | HPLC (%) (room temp., after 4 weeks): 99.60% | Related substances (%) (room temp., after 4 weeks): 0.40%
SMILES: C=C1CCN([C@H](C)[C@](O)(Cn2cncn2)c2ccc(F)cc2F)CC1 [Efinaconazole, efinaconazole]
